By Ki is commonly meant a dissociation constant, usually derived from enzyme kinetics or from competition with a known ligand. One may read the Tmax as the time from dosing to the highest level. For orientation: Cmax means the maximum level reached in the sampled fluid or tissue. Broadly, the AUC is the area under the concentration-time curve, a measure of exposure. Low values mean low exposure, high ones high exposure. By clearance is commonly meant the rate of elimination divided by the concentration. In general, half-life refers to how long it takes for the measured level to halve. Low values mean fast loss, high ones slow loss. The term bioavailability denotes dose-corrected exposure relative to a reference, in per cent.

The record followed here is ChEMBL document CHEMBL1133054, “Noncovalent thrombin inhibitors incorporating an imidazolylethynyl P1” (Bioorg Med Chem Lett, 2000).

The target in data set [1] is Prothrombin (Homo sapiens, UniProt P00734). The data set can be described thus: In vitro inhibition of human thrombin.
For data set [2], the target named is T1, Serine protease 1 (Bos taurus, UniProt P00760).
T1 sequence (P00760 whole entry): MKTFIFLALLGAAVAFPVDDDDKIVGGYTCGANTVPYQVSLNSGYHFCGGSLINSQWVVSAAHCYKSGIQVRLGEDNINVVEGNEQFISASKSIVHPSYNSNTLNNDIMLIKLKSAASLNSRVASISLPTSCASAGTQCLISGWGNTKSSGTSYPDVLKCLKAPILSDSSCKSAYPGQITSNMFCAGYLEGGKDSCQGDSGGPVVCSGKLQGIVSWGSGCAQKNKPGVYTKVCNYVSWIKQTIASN
As to the kind of experiment: Inhibitory activity against Bovine Trypsin.

Data set [3] in a line: Maximum time (Tmax) required to reach Cmax in rats. The class given is ADME, organism-based. The following applies: rat, in vivo.
A short description of data set [4]: Peak plasma concentration (Cmax) in rats. The following applies: rat. The class given is ADME, organism-based.
Data set [5] can be described thus: Area under curve (AUC) at a dose of […] mg/kg in rats. The following applies: rat, in vivo, 30 mg/kg. It counts as ADME, organism-based.
Data set [6] is described as follows: Peak plasma concentration (Cmax) was determined. It counts as ADME, organism-based. The following applies: rat.
The test system of data set [7] is Rattus norvegicus. As to the kind of experiment: Oral bioavailability. The following applies: in vivo. The class given is ADME, organism-based.
A short description of data set [8]: Area under curve at a dose of 10 mg/kg. It counts as ADME, organism-based. Further details: dose 10 mg/kg. The following applies: in vivo.
Data set [9] in a line: Plasma Clearance was determined. It counts as ADME, organism-based. The following applies: rat.
Data set [10] in a line: Half life (t1/2) was determined. It counts as ADME, organism-based. The following applies: rat, in vivo.
The nature of data set [11]: Bioavailability. The following applies: eutheria, in vivo. The class given is ADME, organism-based.
The nature of data set [12]: Area under curve at a dose of 30 mg/kg. It counts as ADME, organism-based. Further details: dose 30 mg/kg. The following applies: rat, in vivo.

As for `NS(=O)(=O)N[C@@H](C(=O)N1CCC[C@H]1C(=O)NCC#Cc1c[nH]cn1)C(c1ccccc1)c1ccccc1`, the inhibitory constant (Ki) in data set [1] was found to be 0.0008 µM; in data set [2], 18 µM.

In the case of `COC(=O)N[C@@H](C(=O)N1CCC[C@H]1C(=O)NCC#Cc1c[nH]cn1)C(C1CCCCC1)C1CCCCC1`, the inhibition constant (Ki) in data set [1] was 0.015 µM; in data set [2], 30 µM.

As for `CC(C)(C)OC(=O)N[C@H](Cc1ccccc1)C(=O)N1CCC[C@H]1C(=O)NCC#Cc1cnc[nH]1`, in [1], the affinity, expressed as Ki, was 1.2 µM.

`CC(C)(C)OC(=O)N[C@@H](C(=O)N1CCC[C@H]1C(=O)NCC#Cc1c[nH]cn1)C(c1ccccc1)c1ccccc1`: the Tmax in [3] was 1 h. Further, the Cmax in data set [4] came out at 14600 nM. Further, the area under the curve (AUC) in data set [5] worked out at 29 µM·h. Besides, the inhibition constant (Ki) in data set [2] stood at 50 µM.

In turn, `O=C(O)CN[C@@H](C(=O)N1CCC[C@H]1C(=O)NCC#Cc1cnc[nH]1)C(c1ccccc1)c1ccccc1` had a Cmax in [6] of 1600 nM. The figures for the Ki in data set [1] and in data set [2] were 0.044 µM and 47 µM, respectively.

Consider `NC1CCC(CNC(=O)[C@@H]2CCCN2C(=O)[C@H](N)C(c2ccccc2)c2ccccc2)CC1` (stereo not given in full), for which the F result in data set [7] is “Oral bioavailability”.

Take `O=C(NCC#Cc1cnc[nH]1)[C@@H]1CCCN1C(=O)[C@H](NS(=O)(=O)Cc1ccccc1)C(c1ccccc1)c1ccccc1`: the Ki was determined as 0.003 µM in data set [1] and 24 µM in data set [2].

On to `CC(C)(C)OC(=O)N[C@H](Cc1ccccc1)C(=O)N1CCC[C@H]1C(=O)NCC#Cc1ccc(N)nc1`, for which the Ki in data set [1] is over 20 µM.

For the molecule `CC(C)(C)OC(=O)N[C@H](Cc1ccccc1)C(=O)N1CCC[C@H]1C(=O)NCC#Cc1ccncc1`, the inhibitory constant (Ki) in data set [1] is over 20 µM.

On to `CC(C)(C)OC(=O)N[C@@H](C(=O)N1CCC[C@H]1C(=O)NCC#Cc1cnc[nH]1)C(C1CCCCC1)C1CCCCC1`, for which the Ki in [1] was found to be 0.029 µM; in [2], 30 µM.

Regarding `N[C@@H](C(=O)N1CCC[C@H]1C(=O)NCC#Cc1cnc[nH]1)C(c1ccccc1)c1ccccc1`, the Ki in data set [1] is 0.012 µM; in [2] it was 25 µM.

On to `O=C(O)CN[C@H](CC1CCCCC1)C(=O)N1CCC[C@H]1C(=O)NCC#Cc1cnc[nH]1`, for which, in data set [6], the Cmax worked out at 1600 nM. The inhibitory constant (Ki) in data set [1] turned out to be 0.48 µM.

As for `CC(C)(C)OC(=O)N[C@H](Cc1ccccc1)C(=O)N1CCC[C@H]1C(=O)NCC#Cc1cn[nH]c1`, in data set [1], affinity was put at a Ki of 5.4 µM.

In the case of `CC(=O)N[C@@H](C(=O)N1CCC[C@H]1C(=O)NCC#Cc1cnc[nH]1)C(c1ccccc1)c1ccccc1`, in data set [6], the peak level (Cmax) was 1600 nM. This molecule gave a Ki in data set [1] of 0.208 µM.

For the molecule `Cn1cncc1C#CCNC(=O)[C@@H]1CCCN1C(=O)[C@@H](Cc1ccccc1)NC(=O)OC(C)(C)C`, in data set [1], the affinity corresponds to a Ki of 5.5 µM.

Regarding `COC(=O)N[C@@H](C(=O)N1CCC[C@H]1C(=O)NCC#Cc1c[nH]cn1)C(c1ccccc1)c1ccccc1`, the Tmax in data set [3] was 1 h. For the same molecule, the area under the curve (AUC) in data set [8] stood at 26 µM·h; in [12], 46 µM·h. Further, the clearance in [9] was determined as 12.8 mL/min/kg. Moreover, the Cmax in data set [6] was 23600 nM. Moreover, the half-life in data set [10] turned out to be 0.667 h. The molecule also came in with a bioavailability in [11] of 58%. Besides, the Ki in data set [1] worked out at 0.014 µM; in data set [2], 24 µM.

Turning to `CS(=O)(=O)N[C@@H](C(=O)N1CCC[C@H]1C(=O)NCC#Cc1c[nH]cn1)C(c1ccccc1)c1ccccc1`, the inhibition constant (Ki) is 0.0026 µM in [1] and 14 µM in [2].

For the molecule `CN(C(=O)[C@H](Cc1ccc(C(=N)NN)cc1)NS(=O)(=O)c1ccc2ccccc2c1)C1CCCC1`, the affinity in [2], expressed as Ki, was 33 µM.

On to `NC1CCC(CNC(=O)[C@@H]2CCCN2C(=O)[C@H](NS(=O)(=O)Cc2ccccc2)C(c2ccccc2)c2ccccc2)CC1` (stereo not given in full), for which the F result in data set [7] is “Oral bioavailability”.
